Test results reported in ChEMBL document CHEMBL1201862, “PubChem BioAssay data set” (2004).
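Exposure lasted 48 hours, with cells grown in 96-well plates and compounds tested at five concentrations. The concentration for 50% growth inhibition is given as GI50.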 Active and inactive are the calls of the source. Rule as the data show it: active = GI50 up to about 1.1 µM and inactive = higher.

Experiments:
Assay in all cases: growth of human tumour cells (NCI), 48 h
[1] = test system: HCT-15
[2] = test system: UO-31
[3] = test system: NCI-H226
[4] = test system: ACHN
[5] = test system: OVCAR-8
[6] = test system: UACC-62
[7] = test system: IGROV-1
[8] = test system: A549
[9] = test system: TK-10
[10] = test system: M14
[11] = test system: MOLT-4
[12] = test system: SK-MEL-28
[13] = test system: HT-29
[14] = test system: DLD-1
[15] = test system: RPMI-8226
[16] = test system: DU-145
[17] = test system: PC-3
[18] = test system: MCF7
[19] = test system: T47D
[20] = test system: NCI-H460

Row | SMILES | GI50 [1] | GI50 [2] | GI50 [3] | GI50 [4] | GI50 [5] | GI50 [6] | GI50 [7] | GI50 [8] | GI50 [9] | GI50 [10] | GI50 [11] | GI50 [12] | GI50 [13] | GI50 [14] | GI50 [15] | GI50 [16] | GI50 [17] | GI50 [18] | GI50 [19] | GI50 [20]
1 | O=C1C2=C(c3ccccc31)C(c1ccccc1Cl)N1C(=O)CCSC1=N2 (centres undefined) | > 100 µM | 58.1 µM (inactive) | > 100 µM (inactive) | > 100 µM (inactive) | > 100 µM (inactive) | 76.7 µM (inactive) | > 100 µM (inactive) | > 100 µM (inactive) | > 100 µM (inactive) | > 100 µM (inactive) | 84.7 µM (inactive) | > 100 µM (inactive) | > 100 µM (inactive) | > 100 µM (inactive) | 81.5 µM (inactive) |  |  |  |  | 
2 | Cc1cc2c(cc1C)N1C(Cl)=C3CCCCC3=C(C#N)C1N2 (centres undefined) | 2.61 µM | 6.55 µM (inactive) | 13.5 µM (inactive) | 3.16 µM (inactive) | 11.5 µM (inactive) | 2.94 µM (inactive) | 6.76 µM (inactive) | 19.9 µM (inactive) | 5.65 µM (inactive) | 7.38 µM (inactive) | 3.48 µM (inactive) | 3.3 µM (inactive) | 2.55 µM (inactive) |  | 5.25 µM (inactive) | 19.3 µM (inactive) | 13.6 µM (inactive) | 4.16 µM (inactive) | 12.2 µM (inactive) | 18 µM (inactive)
3 | CCOC(=O)c1cc2c3c(c(O)c(OC)c2s1)N(C(=O)c1cc2c4c(c(O)c(OC)c2s1)N(C(C)=O)CC4)CC3 |  | 64.4 µM (inactive) | 50.4 µM (inactive) | 77.3 µM (inactive) | 72.8 µM (inactive) | 98.6 µM (inactive) | > 100 µM (inactive) | > 100 µM (inactive) | > 100 µM (inactive) | 46.5 µM (inactive) |  | > 100 µM (inactive) | > 100 µM (inactive) | > 100 µM (inactive) | > 100 µM (inactive) |  |  |  |  | > 100 µM (inactive)
4 | O=C(O)c1cc(N(Cc2ccccc2O)Cc2cc(O)ccc2O)ccc1O [LAVENDUSTIN A] | > 100 µM | > 100 µM (inactive) | > 100 µM (inactive) | > 100 µM (inactive) | > 100 µM (inactive) | > 100 µM (inactive) | > 100 µM (inactive) | > 100 µM (inactive) | > 100 µM (inactive) | > 100 µM (inactive) | > 100 µM (inactive) | > 100 µM (inactive) | > 100 µM (inactive) |  | > 100 µM (inactive) | > 100 µM (inactive) | 42.3 µM (inactive) | > 100 µM (inactive) | > 100 µM (inactive) | > 100 µM (inactive)
5 | Cc1ccc2c(c1)-c1c3c(nn1C)-c1ccccc1SC3O2 (centres undefined) |  | 20.8 µM (inactive) |  | 54.1 µM (inactive) | 39.6 µM (inactive) |  | > 100 µM (inactive) | 50 µM (inactive) | > 100 µM (inactive) |  | 26.1 µM (inactive) | 78.9 µM (inactive) | 41.6 µM (inactive) | > 100 µM (inactive) | 21.8 µM (inactive) |  |  |  |  | 65.8 µM (inactive)
6 | [N-]=[N+]=Nc1c([N+](=O)[O-])c(=O)n(-c2ccccc2)c2ccccc12 | 21.9 µM | 14.8 µM (inactive) | 25.5 µM (inactive) | 21.7 µM (inactive) | 20.1 µM (inactive) | 14.3 µM (inactive) | 21.7 µM (inactive) | 38.7 µM (inactive) | 14.2 µM (inactive) | 27.2 µM (inactive) | 21.4 µM (inactive) | 26.5 µM (inactive) | 28.2 µM (inactive) |  | 16 µM (inactive) | 35.2 µM (inactive) | 16.6 µM (inactive) | 20.7 µM (inactive) | 29.1 µM (inactive) | 30.6 µM (inactive)
7 | COc1cc2cc(C(=O)N3CC(CCl)c4ccc(NCCN)cc43)[nH]c2c(OC)c1OC (centres undefined) | 0.377 µM | 0.132 µM (active) | 0.296 µM (active) | 0.08 µM (active) | 0.167 µM (active) | 0.111 µM (active) | 0.112 µM (active) | 0.208 µM (active) | 0.33 µM (active) | 0.198 µM (active) | 0.0575 µM (active) | 0.249 µM (active) | 0.145 µM (active) |  | 0.153 µM (active) | 0.08 µM (active) | 0.117 µM (active) | 0.0361 µM (active) | 0.301 µM (active) | 0.0658 µM (active)
8 | CCCCCCCCCCCC(=O)N(CCCCCCCCCCC(=O)O)CC(O)C(O)C(OC1OC(CO)C(O)C(O)C1O)C(O)CO (centres undefined) | > 100 µM | > 100 µM (inactive) | > 100 µM (inactive) | > 100 µM (inactive) | > 100 µM (inactive) | > 100 µM (inactive) | > 100 µM (inactive) | > 100 µM (inactive) | > 100 µM (inactive) | > 100 µM (inactive) | > 100 µM (inactive) | > 100 µM (inactive) | > 100 µM (inactive) |  | 50.7 µM (inactive) | > 100 µM (inactive) | > 100 µM (inactive) | > 100 µM (inactive) | > 100 µM (inactive) | > 100 µM (inactive)
9 | C=Cc1ccccc1C1(O)C=CC(OC)(OC)C=C1 | 3.53 µM | 7.24 µM (inactive) | 30.5 µM (inactive) | 12.4 µM (inactive) | 2.06 µM (inactive) | 4.51 µM (inactive) | 13.4 µM (inactive) | 17.3 µM (inactive) | 3.25 µM (inactive) | 5.96 µM (inactive) | 4 µM (inactive) | 6.89 µM (inactive) | 3.57 µM (inactive) |  | 6.41 µM (inactive) | 20.4 µM (inactive) | 10.1 µM (inactive) | 2.94 µM (inactive) | 22.2 µM (inactive) | 8.57 µM (inactive)
10 | CC(C)CC(NC=O)C(=O)NC(Cc1ccccc1)NC(=O)CNC(=O)C(C)NC(=O)OC(C)(C)C (centres undefined) | > 100 µM | > 100 µM (inactive) | > 100 µM (inactive) | > 100 µM (inactive) | > 100 µM (inactive) | > 100 µM (inactive) | > 100 µM (inactive) | > 100 µM (inactive) | > 100 µM (inactive) | > 100 µM (inactive) | > 100 µM (inactive) | > 100 µM (inactive) | > 100 µM (inactive) |  | > 100 µM (inactive) | > 100 µM (inactive) | > 100 µM (inactive) | > 100 µM (inactive) | > 100 µM (inactive) | > 100 µM (inactive)
11 | CC1=CC(=O)/C(=C/n2c(=S)[nH]c3ccc([N+](=O)[O-])cc32)C(=O)O1 | > 100 µM | > 100 µM (inactive) | > 100 µM (inactive) | > 100 µM (inactive) | > 100 µM (inactive) | > 100 µM (inactive) | > 100 µM (inactive) | > 100 µM (inactive) | > 100 µM (inactive) | > 100 µM (inactive) | > 100 µM (inactive) | > 100 µM (inactive) | > 100 µM (inactive) |  | > 100 µM (inactive) | > 100 µM (inactive) | > 100 µM (inactive) | > 100 µM (inactive) | > 100 µM (inactive) | > 100 µM (inactive)
12 | CCOC(=O)C/N=c1\nc(SC)sc2c(C(=O)OCC)nc(Sc3ccccc3)n12 |  | 17.8 µM (inactive) | 26 µM (inactive) |  | 39.3 µM (inactive) | > 100 µM (inactive) | 83.2 µM (inactive) | > 10 µM (inactive) | 25.9 µM (inactive) | > 100 µM (inactive) |  |  | > 100 µM (inactive) | 34.2 µM (inactive) | 8.41 µM (inactive) |  |  |  |  | 
